Earlier results as cited in patent US20070099863A1, “Compounds for the treatment of demyelinating and autoimmune diseases” (priority 2003, published 2007).
Structures can show the parent of a compound that is named as a salt.

Experiments:
P2X5 = P2X5 (Homo sapiens, UniProt Q93086); conditions: P2X5 subtype; read-out: IC50 in relation to P2X5; cited from earlier work
P2X4 = molecular target: T1, P2X4 (Homo sapiens, UniProt Q99571); conditions: P2X4 subtype; read-out: IC50 in relation to P2X4; cited from earlier work
T1 sequence (Q99571 1-388): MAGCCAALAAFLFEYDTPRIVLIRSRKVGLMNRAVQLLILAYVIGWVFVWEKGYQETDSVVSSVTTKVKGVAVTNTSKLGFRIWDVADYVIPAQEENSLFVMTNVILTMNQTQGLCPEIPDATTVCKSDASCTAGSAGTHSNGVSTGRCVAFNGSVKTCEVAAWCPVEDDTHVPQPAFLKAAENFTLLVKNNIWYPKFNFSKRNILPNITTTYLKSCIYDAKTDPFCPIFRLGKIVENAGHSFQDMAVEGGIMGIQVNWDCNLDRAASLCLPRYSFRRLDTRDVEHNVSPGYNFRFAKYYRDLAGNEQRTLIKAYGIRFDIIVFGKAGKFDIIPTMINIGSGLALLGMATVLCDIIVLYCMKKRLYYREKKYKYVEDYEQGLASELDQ

P2X7 = molecular target: T2, P2X7 (Homo sapiens, UniProt Q99572); conditions: P2X7 subtype; read-out: IC50 in relation to P2X7; cited from earlier work
T2 sequence (Q99572 1-595): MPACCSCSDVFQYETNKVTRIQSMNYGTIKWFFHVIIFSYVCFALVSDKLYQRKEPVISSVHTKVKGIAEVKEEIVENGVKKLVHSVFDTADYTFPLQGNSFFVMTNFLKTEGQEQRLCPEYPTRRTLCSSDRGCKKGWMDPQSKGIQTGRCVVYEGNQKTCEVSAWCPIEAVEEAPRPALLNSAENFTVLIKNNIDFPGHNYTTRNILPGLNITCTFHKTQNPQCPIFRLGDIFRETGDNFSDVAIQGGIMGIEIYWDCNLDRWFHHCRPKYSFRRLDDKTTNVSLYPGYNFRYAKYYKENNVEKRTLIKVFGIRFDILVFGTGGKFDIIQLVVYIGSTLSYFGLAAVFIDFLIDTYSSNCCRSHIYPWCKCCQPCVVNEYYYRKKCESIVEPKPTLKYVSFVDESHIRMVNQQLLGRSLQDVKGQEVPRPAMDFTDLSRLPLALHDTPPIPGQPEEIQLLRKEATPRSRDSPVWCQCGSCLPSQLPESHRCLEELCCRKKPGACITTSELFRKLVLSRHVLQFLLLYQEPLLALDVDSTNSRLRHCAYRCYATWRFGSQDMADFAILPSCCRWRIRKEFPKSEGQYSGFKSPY

Sequence of P2X5 (Q93086 whole entry, species assumed): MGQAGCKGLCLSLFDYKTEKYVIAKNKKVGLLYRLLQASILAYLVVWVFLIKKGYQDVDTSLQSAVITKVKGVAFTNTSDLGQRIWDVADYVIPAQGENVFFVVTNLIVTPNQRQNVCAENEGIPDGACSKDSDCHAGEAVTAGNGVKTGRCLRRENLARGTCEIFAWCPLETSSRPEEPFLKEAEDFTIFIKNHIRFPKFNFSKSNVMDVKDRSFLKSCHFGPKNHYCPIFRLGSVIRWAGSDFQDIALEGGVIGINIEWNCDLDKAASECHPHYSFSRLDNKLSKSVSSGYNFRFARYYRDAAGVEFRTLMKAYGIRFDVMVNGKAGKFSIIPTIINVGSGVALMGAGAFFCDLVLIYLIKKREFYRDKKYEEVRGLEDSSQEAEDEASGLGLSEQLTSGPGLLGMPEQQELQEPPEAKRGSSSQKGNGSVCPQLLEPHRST

| SMILES | IC50 (P2X5) | IC50 (P2X4) | IC50 (P2X7) |
| --- | --- | --- | --- |
| Cc1ccc(C(=O)Nc2ccc(S(=O)(=O)O)c3cc(S(=O)(=O)O)cc(S(=O)(=O)O)c23)cc1NC(=O)c1cccc(NC(=O)Nc2cccc(C(=O)Nc3cc(C(=O)Nc4ccc(S(=O)(=O)O)c5cc(S(=O)(=O)O)cc(S(=O)(=O)O)c45)ccc3C)c2)c1 [Suramin, hexasodium salt of 8,8′-[carbonylbis[imino-3,1-phenylenecarbonylimino(4-methyl-3,1-phenylene)carbonylimino]]bisnaphthalene-1,3,5-trisulphonic acid] | 4 µM | 178 µM | – |
| CCOc1ccc(Nc2ccc(/C(=C3C=C/C(=[N+](/CC)Cc4cccc(S(=O)(=O)[O-])c4)C=C/3C)c3ccc(N(CC)Cc4cccc(S(=O)(=O)O)c4)cc3C)cc2)cc1 [BBG, Coomassie brilliant blue G] | – | > 10 µM | 0.01 µM |
